Experiment: Cutaneous wound (skin lesion) at the site of repeated s.c. Copaxone injection in EAE mice
Assay type: in vivo
Conditions: s.c. injection on the mice back; 7 mice/group
Procedure: The treatments were given daily, five times a week and usually continued for about 60 days. GA were given s.c (at an injection dose of 1 mg/mouse), and cannabis extracts were administrated i.p. (intraperitoneal).
In mice treated with the Copaxone only (2 out of 7 mice), a skin lesion developed on the mice back at the site of repeated Copaxone injections.

For glatiramer acetate [Copaxone], the “skin lesion at the site of repeated Copaxone injections” value was 2 out of 7.

Reference: US20190321426A1, “COMBINATION THERAPIES WITH CANNABIS PLANT EXTRACT” (TIKUN OLAM LTD, priority 2016, published 2019)
